Test results as given in patent publication US11077145B2, “Method for mass producing proteins in mesenchymal stem cells” (STEMMEDICARE CO., LTD., priority 2015, dated 2021).
Where “and” joins values, the source holds several entries; their conditions need not be identical. Equal entries are not always repeated. Marks after values point to notes of the source that are not given here.

Tests used:
C57BL/6 mice [1] = experiment: Hair growth suppression model (dexamethasone), hair growth score and number of hair follicles; type: in vivo, mouse; parameters: hair growth score, Average: scale not given here
Experimental: A comparative test was performed to examine the hair growth effect of the mesenchymal stem cell conditioned medium of the present invention using C57BL/6 mice. After depilating the test animals, the depilatory was treated to induce them from the telogen (resting phase) to the anagen (growing phase), and then to suppress the growth of hair follicles, 0.1% of dexamethanone was transdermally administered for 5 days from 8 days after depilation repeatedly. Next, in order to compare the growth promoting effect of the test substance containing 3% of the mesenchymal stem cell conditioned medium of the present invention, the growth promoting effects were compared with the test substance by transdermally administered repeatedly of G1 (distilled water control), G2 (placebo control), G3 (test substance) and G4 (positive control-minoxidil 5%) for 8 days.

C57BL/6 mice [2] = experiment: Anagen hair model, hair growth score and number of hair follicles; type: in vivo, mouse; parameters: hair growth score, Average: scale not given here
Experimental: A comparative test was performed to investigate the effect of hair growth promotion of the mesenchymal stem cell conditioned medium of the present invention using C57BL/6 mice. After induction of the hair follicles of the test animal from the telogen (resting phase) to the […] (growing phase) and depilatione, in order to compare the growth promoting effect of the test substance containing 3% of the mesenchymal stem cell conditioned medium of the present invention, G1 (distilled water control), G2 (placebo control), G3 (test substance) and G4 (positive control-minoxidil 5%) were transdermally administered repeatedly for 14 days respectively, and the hair growth promoting effects were compared with the test substance.

[3] = individual animal average of 3 areas
[4] = individual animal, female, 8th day of administration
[5] = individual animal, histopathological examination
[6] = individual animal, female, 13th day

Structure (SMILES): Nc1cc(N2CCCCC2)nc(N)[n+]1[O-] [G4, Minoxidil]
- number of hair follicles, Total Average (C57BL/6 mice [1]; group average, transdermal for 8 days): 66.37
- hair growth score, Total Average (C57BL/6 mice [1]; group average, transdermal for 8 days, 8th day): 2.68 points
- number of hair follicles, Average (C57BL/6 mice [1]; [3]): 87.67 and 92.33 and 71.00 and 36.33 and 108.33 and 61.33 and 45.33 and 29.67 and 36.00 and 95.67
- hair growth score, Average (C57BL/6 mice [1]; individual animal average, 8th day of administration): 3.00 (3×) and 1.75 (2×) and 2.25 and 2.75 (2×) and 2.50 and 4.00
- hair growth score, Score 1st (C57BL/6 mice [1]; [4]): 2 (40~59% (2)) (6×) and 1 (20~39% (1)) (2×) and 3 (60~79% (3)) and 4 (80~100% (4))
- hair growth score, Score 2nd (C57BL/6 mice [1]; [4]): 2 (40~59% (2)) (7×) and 1 (20~39% (1)) (2×) and 4 (80~100% (4))
- hair growth score, Score 3rd (C57BL/6 mice [1]; [4]): 4 (80~100% (4)) (4×) and 2 (40~59% (2)) (3×) and 3 (60~79% (3)) (2×) and 1 (20~39% (1))
- hair growth score, Score 4th (C57BL/6 mice [1]; [4]): 4 (80~100% (4)) (7×) and 3 (60~79% (3)) (3×)
- number of hair follicles, Area 1 (C57BL/6 mice [1]; [5]): 70 and 97 and 66 and 53 and 114 and 65 and 78 and 46 and 37 and 95
- number of hair follicles, Area 2 (C57BL/6 mice [1]; [5]): 96 and 87 (2×) and 65 and 37 (2×) and 108 and 52 and 19 and 48
- number of hair follicles, Area 3 (C57BL/6 mice [1]; [5]): 97 and 93 and 82 and 19 and 103 and 67 and 21 and 24 and 23 and 105
- hair growth score, Average (C57BL/6 mice [2]; 15th day, female C57BL/6 mice, average of the four scores per animal): 4 (4×) and 3.75 (3×) and 3.5 (3×)
- hair growth score, Total Average (C57BL/6 mice [2]; 15th day, female C57BL/6 mice, group average, transdermal administration for 14 days): 3.78**
- hair growth score, Score 1st (C57BL/6 mice [2]; 15th day, female C57BL/6 mice, individual animal, 1st score): 4 (80~100% (4)) (9×) and 3 (60~79% (3))
- hair growth score, Score 2nd (C57BL/6 mice [2]; 15th day, female C57BL/6 mice, individual animal, 2nd score): 4 (80~100% (4)) (5×) and 3 (60~79% (3)) (5×)
- hair growth score, Score 3rd (C57BL/6 mice [2]; 15th day, female C57BL/6 mice, individual animal, 3rd score): 4 (80~100% (4))
- hair growth score, Score 4th (C57BL/6 mice [2]; 15th day, female C57BL/6 mice, individual animal, 4th score): 4 (80~100% (4)) (7×) and 3 (60~79% (3)) (3×)
- hair growth score, Total Average (C57BL/6 mice [2]; group average, 13th day): 3.27 point
- hair growth score, Total Average (C57BL/6 mice [2]; group average, 15th day): 3.78 point
- number of hair follicles, Total Average (C57BL/6 mice [2]; group average, transdermal for 14 days): 104.70
- number of hair follicles, Average (C57BL/6 mice [2]; [3]): 191.33 and 107.67 and 69.00 and 149.67 and 54.67 and 82.67 and 72.33 and 130.33 and 138.67 and 50.67
- hair growth score, Average (C57BL/6 mice [2]; individual animal average, 13th day): 3.67 (2×) and 4.00 (2×) and 3.33 (2×) and 3.00 and 2.33 and 2.67 (2×)
- hair growth score, Score 1st (C57BL/6 mice [2]; [6]): 3 (60~79% (3)) (4×) and 4 (80~100% (4)) (2×) and 2 (40~59% (2)) (4×)
- hair growth score, Score 2nd (C57BL/6 mice [2]; [6]): 3 (60~79% (3)) (5×) and 4 (80~100% (4)) (2×) and 1 (20~39% (1)) (2×) and 2 (40~59% (2))
- hair growth score, Score 3rd (C57BL/6 mice [2]; [6]): 4 (80~100% (4)) (6×) and 3 (60~79% (3)) (4×)
- hair growth score, Score 4th (C57BL/6 mice [2]; [6]): 4 (80~100% (4)) (5×) and 3 (60~79% (3)) (5×)
- number of hair follicles, Area 1 (C57BL/6 mice [2]; [5]): 232 and 48 and 92 and 135 and 45 and 90 and 71 and 149 and 121 and 53
- number of hair follicles, Area 2 (C57BL/6 mice [2]; [5]): 209 and 135 and 55 and 155 and 50 and 94 and 79 and 126 and 164 and 41
- number of hair follicles, Area 3 (C57BL/6 mice [2]; [5]): 133 and 140 and 60 and 159 and 69 and 64 and 67 and 116 and 131 and 58
